Our source for the inhibition values is ChEMBL document CHEMBL5696442, “Discovery of type II inhibitors of TGFβ-activated kinase 1 (TAK1) and mitogen-activated protein kinase kinase kinase kinase 2 (MAP4K2)” (J Med Chem, 2015).

The target of experiment [1] is Ribosomal protein S6 kinase alpha-3 (Homo sapiens) (UniProt P51812). Description: Inhibition of RSK2 domain1 ACT labeling site LTDFGLSKESIDHEK in human Huh-7 cell lysate at 1 uM by KiNativ Profiling analysis relative to control. The format is subcellular.
Ribosomal protein S6 kinase alpha-3 (Homo sapiens), sequence (P51812 whole entry, the tested form may be a part): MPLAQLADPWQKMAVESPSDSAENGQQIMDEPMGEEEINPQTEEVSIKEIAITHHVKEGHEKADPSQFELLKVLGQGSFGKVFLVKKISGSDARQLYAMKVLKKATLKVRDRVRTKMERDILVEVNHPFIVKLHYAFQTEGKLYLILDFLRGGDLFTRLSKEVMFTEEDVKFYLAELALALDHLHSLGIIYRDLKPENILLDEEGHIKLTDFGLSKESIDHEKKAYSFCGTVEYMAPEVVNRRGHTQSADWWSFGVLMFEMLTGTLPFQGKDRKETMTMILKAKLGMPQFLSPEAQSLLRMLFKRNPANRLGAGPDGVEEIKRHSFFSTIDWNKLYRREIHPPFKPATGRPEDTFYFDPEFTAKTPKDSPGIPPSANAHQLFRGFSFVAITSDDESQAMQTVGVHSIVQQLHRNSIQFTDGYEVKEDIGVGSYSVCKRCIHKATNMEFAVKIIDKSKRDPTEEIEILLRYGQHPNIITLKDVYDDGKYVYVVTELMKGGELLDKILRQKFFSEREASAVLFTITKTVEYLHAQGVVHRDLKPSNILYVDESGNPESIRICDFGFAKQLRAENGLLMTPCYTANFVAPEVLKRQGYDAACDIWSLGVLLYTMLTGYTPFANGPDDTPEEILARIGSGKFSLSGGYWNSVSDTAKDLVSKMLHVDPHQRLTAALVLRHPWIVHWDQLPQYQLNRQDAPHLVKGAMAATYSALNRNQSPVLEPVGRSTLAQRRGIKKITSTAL
Experiment [2] deals with T1, Phosphatidylinositol 5-phosphate 4-kinase type-2 alpha (Homo sapiens) (UniProt P48426).
T1 sequence (whole entry): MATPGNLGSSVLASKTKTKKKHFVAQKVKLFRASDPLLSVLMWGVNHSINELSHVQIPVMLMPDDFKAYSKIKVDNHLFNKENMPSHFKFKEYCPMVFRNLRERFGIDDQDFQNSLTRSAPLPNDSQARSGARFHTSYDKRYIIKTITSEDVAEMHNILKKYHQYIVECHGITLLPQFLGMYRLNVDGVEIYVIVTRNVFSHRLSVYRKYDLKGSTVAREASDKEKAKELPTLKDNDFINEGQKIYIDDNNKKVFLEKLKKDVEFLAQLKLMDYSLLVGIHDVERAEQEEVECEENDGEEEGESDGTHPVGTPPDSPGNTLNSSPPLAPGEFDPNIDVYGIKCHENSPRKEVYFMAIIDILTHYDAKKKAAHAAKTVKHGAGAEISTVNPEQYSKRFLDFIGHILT
As to the kind of experiment: Inhibition of PIP4K2A ATP labeling site harbouring AKELPTLKDNDFINEGQK in human Huh-7 cell lysate at 1 uM by KiNativ Profiling analysis relative to control. The format is subcellular.

Experiment [3] has as its target Dual specificity mitogen-activated protein kinase kinase 2 (Homo sapiens) (UniProt P36507). As to the kind of experiment: Inhibition of MAP2K2 Lys2 labeling site in human Huh-7 cell lysate at 1 uM by KiNativ Profiling analysis relative to control. The format is subcellular.
Experiment [4] addresses Serine/threonine-protein kinase 4 (Homo sapiens) (UniProt Q13043). Description: Inhibition of MST1 Lys2 labeling site harbouring IHRDIKAGNILLNTEGHAK in human Huh-7 cells at 1 uM by KiNativ Profiling analysis relative to control.
In experiment [5] the target is RAC-gamma serine/threonine-protein kinase (Homo sapiens) (UniProt Q9Y243). Description: Inhibition of AKT3 (unknown origin) at 1 uM by Ambit Kinomescan binding assay relative to control.
Experiment [6] has as its target Atypical kinase COQ8A, mitochondrial (Homo sapiens) (UniProt Q8NI60). Description: Inhibition of ADCK3 (unknown origin) at 10 uM by Ambit Kinomescan binding assay.
Experiment [7] has as its target Tyrosine-protein kinase CSK (Homo sapiens, UniProt P41240). Description: Inhibition of CSK ACT labeling site harbouring VSDFGLTKEASSTQDTGKLPVK in human A-375 cells at 0.5 uM by KiNativ Profiling analysis relative to control. The format is cell-based.
Experiment [8] concerns the target Serine/threonine-protein kinase 26 (Homo sapiens) (UniProt Q9P289). As to the kind of experiment: Inhibition of MST4 K1 labeling site in human Huh-7 cells at 1 uM by KiNativ Profiling analysis relative to control. Type of experiment: cell-based.
Experiment [9] has as its target MAST1/MAST2 (Homo sapiens) (UniProt Q9Y2H9+Q6P0Q8). As to the kind of experiment: Inhibition of MAST1/2 K2 labeling site in human Huh-7 cells at 10 uM by KiNativ Profiling analysis relative to control. The format is cell-based.
The target of experiment [10] is TRAF2 and NCK-interacting protein kinase (Homo sapiens) (UniProt Q9UKE5). As to the kind of experiment: Inhibition of TNIK K1 labeling site in human Huh-7 cells at 10 uM by KiNativ Profiling analysis relative to control. The format is cell-based.
The target of experiment [11] is T2, Serine/threonine-protein kinase Nek1 (Homo sapiens) (UniProt Q96PY6).
T2 sequence (whole entry): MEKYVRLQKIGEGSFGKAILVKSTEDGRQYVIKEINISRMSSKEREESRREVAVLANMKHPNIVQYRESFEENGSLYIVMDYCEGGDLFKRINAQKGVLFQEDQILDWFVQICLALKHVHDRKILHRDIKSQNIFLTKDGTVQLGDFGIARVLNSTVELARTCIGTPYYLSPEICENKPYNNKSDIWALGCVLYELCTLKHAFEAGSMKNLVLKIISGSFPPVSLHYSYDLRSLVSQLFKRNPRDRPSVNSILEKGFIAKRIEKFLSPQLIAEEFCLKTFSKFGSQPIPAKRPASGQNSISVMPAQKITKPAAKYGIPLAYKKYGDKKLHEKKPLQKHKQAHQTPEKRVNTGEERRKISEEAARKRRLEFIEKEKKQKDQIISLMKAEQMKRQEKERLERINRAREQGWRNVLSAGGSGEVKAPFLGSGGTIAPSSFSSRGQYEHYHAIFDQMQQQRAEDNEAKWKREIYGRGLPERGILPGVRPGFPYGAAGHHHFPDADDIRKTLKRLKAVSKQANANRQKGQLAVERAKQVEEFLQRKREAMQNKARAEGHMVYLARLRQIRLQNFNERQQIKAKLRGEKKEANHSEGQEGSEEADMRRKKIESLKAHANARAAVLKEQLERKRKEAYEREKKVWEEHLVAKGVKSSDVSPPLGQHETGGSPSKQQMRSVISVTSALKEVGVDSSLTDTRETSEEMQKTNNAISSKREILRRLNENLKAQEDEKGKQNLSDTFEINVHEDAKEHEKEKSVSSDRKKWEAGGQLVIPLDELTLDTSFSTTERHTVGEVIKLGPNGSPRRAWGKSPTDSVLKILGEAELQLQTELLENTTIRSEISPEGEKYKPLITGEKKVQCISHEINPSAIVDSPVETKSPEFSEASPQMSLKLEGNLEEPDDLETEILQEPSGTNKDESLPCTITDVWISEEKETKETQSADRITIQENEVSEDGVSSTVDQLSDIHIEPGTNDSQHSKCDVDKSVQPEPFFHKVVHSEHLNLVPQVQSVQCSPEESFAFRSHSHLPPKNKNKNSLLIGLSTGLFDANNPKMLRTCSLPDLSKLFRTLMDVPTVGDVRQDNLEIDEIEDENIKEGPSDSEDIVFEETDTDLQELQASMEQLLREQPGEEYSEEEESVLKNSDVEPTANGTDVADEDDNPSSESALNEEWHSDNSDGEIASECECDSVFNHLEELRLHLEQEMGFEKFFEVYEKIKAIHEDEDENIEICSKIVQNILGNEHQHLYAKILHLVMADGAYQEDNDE
As to the kind of experiment: Inhibition of NEK1 (unknown origin) at 10 uM by Ambit Kinomescan binding assay.

The target of experiment [12] is Peripheral plasma membrane protein CASK (Homo sapiens) (UniProt O14936). Description: Inhibition of CASK K1 labeling site in human Huh-7 cells at 10 uM by KiNativ Profiling analysis relative to control.

Molecules are shown by their SMILES. Calls of active or inactive are those of the source. No cut-off for these calls is given here.

MAST1/MAST2 (Homo sapiens), sequence (Q6P0Q8 whole entry, looked up): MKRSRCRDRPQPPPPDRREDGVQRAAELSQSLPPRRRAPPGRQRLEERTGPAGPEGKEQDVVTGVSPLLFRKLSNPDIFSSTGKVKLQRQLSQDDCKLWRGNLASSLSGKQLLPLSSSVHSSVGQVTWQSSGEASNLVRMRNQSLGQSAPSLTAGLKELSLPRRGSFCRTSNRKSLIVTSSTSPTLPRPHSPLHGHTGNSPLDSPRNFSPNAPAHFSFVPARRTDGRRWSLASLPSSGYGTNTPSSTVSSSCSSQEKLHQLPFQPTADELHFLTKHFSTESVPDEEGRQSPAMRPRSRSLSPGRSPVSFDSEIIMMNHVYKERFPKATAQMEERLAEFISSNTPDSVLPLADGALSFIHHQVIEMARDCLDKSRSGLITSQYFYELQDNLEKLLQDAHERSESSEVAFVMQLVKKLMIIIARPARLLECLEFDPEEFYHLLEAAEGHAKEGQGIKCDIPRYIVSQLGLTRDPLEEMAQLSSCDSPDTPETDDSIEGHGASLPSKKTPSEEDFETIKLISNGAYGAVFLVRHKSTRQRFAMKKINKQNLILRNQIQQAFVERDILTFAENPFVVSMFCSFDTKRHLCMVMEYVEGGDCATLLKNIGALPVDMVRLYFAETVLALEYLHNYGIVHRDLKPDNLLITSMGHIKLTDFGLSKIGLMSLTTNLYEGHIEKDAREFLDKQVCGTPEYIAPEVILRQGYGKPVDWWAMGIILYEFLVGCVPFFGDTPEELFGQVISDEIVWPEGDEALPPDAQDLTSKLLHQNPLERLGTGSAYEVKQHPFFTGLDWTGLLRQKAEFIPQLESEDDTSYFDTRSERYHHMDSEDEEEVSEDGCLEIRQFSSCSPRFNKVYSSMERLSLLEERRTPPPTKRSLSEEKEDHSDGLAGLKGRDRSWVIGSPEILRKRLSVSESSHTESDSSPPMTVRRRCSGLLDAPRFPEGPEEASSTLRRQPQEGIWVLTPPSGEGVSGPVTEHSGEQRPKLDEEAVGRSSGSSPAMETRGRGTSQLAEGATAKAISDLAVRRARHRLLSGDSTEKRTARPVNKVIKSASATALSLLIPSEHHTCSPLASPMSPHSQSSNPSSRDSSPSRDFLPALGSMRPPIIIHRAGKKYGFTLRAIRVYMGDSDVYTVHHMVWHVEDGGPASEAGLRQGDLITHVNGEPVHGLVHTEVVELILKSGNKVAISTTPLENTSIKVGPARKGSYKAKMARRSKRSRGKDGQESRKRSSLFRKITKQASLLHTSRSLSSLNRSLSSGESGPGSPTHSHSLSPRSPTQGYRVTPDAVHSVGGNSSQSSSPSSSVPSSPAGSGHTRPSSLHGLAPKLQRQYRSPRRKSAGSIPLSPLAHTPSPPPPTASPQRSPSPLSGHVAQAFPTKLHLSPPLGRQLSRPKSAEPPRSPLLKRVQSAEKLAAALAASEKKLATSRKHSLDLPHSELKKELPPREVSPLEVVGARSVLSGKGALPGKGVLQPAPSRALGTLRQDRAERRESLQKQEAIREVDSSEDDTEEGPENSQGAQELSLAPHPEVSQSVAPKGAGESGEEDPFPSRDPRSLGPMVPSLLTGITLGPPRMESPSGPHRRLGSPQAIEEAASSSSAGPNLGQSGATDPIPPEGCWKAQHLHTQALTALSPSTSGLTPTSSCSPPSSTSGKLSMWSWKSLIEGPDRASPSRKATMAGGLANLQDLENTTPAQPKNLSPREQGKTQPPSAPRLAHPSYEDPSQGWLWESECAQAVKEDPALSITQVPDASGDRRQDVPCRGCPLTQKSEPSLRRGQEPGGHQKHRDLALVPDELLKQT
MAST1/MAST2 (Homo sapiens), sequence (Q9Y2H9 whole entry, looked up): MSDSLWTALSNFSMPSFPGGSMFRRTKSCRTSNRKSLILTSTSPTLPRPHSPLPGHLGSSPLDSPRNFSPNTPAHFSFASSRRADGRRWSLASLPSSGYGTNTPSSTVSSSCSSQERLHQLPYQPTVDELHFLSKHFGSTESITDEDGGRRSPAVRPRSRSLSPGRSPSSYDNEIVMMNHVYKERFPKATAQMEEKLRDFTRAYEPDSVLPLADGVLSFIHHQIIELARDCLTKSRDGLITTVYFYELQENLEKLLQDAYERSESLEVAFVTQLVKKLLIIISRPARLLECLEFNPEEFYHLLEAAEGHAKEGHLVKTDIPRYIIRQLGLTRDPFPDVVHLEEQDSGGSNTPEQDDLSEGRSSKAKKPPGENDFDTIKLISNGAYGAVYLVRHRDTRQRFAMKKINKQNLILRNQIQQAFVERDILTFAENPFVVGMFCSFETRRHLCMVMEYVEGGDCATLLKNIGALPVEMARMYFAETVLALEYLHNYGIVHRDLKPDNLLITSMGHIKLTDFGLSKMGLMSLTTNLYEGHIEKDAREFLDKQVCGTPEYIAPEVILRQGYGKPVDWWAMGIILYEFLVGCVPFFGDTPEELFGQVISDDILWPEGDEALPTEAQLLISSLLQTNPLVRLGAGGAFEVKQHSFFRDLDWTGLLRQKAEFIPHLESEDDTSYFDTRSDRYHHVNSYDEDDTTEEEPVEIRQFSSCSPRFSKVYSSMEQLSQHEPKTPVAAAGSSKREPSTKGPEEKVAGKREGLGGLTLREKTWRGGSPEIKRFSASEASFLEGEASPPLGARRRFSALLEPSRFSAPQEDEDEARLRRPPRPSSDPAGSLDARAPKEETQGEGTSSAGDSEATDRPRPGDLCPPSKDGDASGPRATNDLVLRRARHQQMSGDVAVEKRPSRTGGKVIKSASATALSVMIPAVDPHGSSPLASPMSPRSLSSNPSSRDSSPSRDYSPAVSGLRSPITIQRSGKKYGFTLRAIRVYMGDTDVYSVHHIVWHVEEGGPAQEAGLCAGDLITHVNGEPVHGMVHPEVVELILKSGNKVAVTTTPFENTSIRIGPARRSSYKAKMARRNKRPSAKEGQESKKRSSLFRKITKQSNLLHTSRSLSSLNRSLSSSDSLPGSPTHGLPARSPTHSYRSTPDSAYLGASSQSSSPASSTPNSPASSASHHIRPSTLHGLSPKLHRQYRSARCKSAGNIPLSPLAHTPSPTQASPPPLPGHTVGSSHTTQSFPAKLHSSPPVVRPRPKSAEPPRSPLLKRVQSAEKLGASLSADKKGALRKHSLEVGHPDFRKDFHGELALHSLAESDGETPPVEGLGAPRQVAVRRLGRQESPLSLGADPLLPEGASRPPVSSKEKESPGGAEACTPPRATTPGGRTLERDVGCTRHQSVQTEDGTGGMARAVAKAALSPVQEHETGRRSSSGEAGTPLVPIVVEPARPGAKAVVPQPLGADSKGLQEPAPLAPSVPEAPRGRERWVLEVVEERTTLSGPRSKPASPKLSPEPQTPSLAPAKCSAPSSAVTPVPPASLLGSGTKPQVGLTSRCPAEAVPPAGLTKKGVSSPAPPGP
Serine/threonine-protein kinase 26 (Homo sapiens), sequence (Q9P289 2-416 limits assumed): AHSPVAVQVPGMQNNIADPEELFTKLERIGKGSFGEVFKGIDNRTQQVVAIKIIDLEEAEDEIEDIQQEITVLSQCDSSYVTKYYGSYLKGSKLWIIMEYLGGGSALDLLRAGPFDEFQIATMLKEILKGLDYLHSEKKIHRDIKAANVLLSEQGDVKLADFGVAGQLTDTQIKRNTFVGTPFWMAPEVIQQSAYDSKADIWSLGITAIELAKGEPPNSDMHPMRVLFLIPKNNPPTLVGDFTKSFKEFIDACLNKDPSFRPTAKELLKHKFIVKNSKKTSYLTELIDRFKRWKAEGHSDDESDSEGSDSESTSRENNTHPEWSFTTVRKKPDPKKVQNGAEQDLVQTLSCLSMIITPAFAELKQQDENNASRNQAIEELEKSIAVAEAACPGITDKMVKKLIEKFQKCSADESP
Dual specificity mitogen-activated protein kinase kinase 2 (Homo sapiens), sequence (P36507 whole entry): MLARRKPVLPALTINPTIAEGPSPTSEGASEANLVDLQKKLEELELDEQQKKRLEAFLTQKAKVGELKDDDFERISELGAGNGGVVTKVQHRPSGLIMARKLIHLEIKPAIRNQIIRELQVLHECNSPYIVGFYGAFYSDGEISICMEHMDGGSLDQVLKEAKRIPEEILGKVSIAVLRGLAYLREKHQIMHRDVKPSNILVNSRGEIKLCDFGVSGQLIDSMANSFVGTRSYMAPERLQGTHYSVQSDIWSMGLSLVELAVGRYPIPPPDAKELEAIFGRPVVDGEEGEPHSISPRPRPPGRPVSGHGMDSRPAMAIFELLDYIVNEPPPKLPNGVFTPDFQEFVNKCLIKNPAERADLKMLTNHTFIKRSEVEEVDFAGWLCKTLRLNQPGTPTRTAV

For orientation: inhibition means the drop in the measured response relative to a control, in per cent. For the molecule `CNc1cc(Oc2cc(C(=O)Nc3cc(N4CCN(C)CC4)cc(C(F)(F)F)c3)ccc2C)ncn1`, the inhibition is -5% in experiment [1], 0.1% in [2], 15.6% in [3] and -0.8% in experiment [4].
Turning to `CCN1CCN(Cc2ccc(NC(=O)c3ccc(C)c(/C=C/c4cnc5[nH]ccc5c4OC)c3)cc2C(F)(F)F)CC1`, the inhibition in experiment [5] came to 100%.
With `CCN1CCN(Cc2ccc(NC(=O)c3ccc(C)c(Oc4ccnc5[nH]ccc45)c3)cc2C(F)(F)F)CC1`, the inhibition entry in [6] and in [11] was “inactive” in each case. Further, the inhibition in [7] was 36.5%; in [8], 5.3%; in [9], 17.6%; in [10], 74.5%; in experiment [12], 12%.
